Experiments:
[1] = biological target: T1, Phosphatidylinositol 4,5-bisphosphate 3-kinase catalytic subunit alpha isoform (Homo sapiens, UniProt P42336); experiment: Inhibition of recombinant human PI3Kalpha using PIP2/ATP as substrate preincubated for 20 mins followed by substrate addition measured after 80 mins by Kinase-Glo plus assay
[2] = biological target: T1, Phosphatidylinositol 4,5-bisphosphate 3-kinase catalytic subunit alpha isoform; experiment: Inhibition of PI3Kalpha in human BT474 cells assessed as inhibition of Akt phosphorylation at […] after 2 hrs by ELISA; type: cell-based, BT-474
[3] = biological target: Vascular endothelial growth factor receptor 2 (Homo sapiens, UniProt P35968); experiment: Inhibition of KDR (unknown origin)
Vascular endothelial growth factor receptor 2, sequence (P35968 whole entry): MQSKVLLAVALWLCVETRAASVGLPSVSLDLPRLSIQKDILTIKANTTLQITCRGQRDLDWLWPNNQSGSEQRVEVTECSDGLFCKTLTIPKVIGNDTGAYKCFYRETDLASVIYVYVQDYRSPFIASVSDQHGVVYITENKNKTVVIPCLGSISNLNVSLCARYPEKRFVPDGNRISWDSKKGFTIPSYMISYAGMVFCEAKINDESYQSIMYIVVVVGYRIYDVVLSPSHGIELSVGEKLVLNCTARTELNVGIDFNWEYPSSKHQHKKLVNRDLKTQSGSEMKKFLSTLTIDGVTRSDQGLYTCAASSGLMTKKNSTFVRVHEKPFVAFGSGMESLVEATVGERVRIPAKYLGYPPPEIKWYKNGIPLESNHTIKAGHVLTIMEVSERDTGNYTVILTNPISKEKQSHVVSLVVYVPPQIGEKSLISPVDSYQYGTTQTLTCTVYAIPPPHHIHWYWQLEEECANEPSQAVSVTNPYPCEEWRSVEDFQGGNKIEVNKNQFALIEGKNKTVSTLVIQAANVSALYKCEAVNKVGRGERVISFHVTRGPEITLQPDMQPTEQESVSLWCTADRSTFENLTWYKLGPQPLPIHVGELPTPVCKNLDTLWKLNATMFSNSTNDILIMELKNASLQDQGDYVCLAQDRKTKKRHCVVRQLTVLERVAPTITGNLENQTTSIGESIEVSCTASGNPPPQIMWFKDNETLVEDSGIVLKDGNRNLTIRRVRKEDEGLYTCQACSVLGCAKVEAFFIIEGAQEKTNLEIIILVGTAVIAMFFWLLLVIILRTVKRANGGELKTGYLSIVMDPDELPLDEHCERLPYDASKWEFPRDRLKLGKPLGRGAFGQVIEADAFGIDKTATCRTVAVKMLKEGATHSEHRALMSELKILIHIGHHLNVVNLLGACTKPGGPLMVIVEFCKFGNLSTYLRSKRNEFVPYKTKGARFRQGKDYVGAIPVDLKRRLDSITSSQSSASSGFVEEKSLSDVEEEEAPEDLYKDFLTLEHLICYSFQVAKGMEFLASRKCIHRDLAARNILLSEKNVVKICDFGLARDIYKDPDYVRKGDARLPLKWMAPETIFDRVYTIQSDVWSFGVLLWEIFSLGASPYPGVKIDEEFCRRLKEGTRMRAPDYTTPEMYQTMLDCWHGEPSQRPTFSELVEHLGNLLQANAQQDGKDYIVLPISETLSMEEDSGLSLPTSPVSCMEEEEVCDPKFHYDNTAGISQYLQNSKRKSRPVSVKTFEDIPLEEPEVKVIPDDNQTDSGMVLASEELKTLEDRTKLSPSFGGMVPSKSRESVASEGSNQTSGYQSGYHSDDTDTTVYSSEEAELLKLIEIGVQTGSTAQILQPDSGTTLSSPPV

[4] = Octanol/buffer partition co-efficient, log D of the compound at pH 7.4 after 30 mins by shake-flask method; type: physicochemical
[5] = biological target: T2, Phosphatidylinositol 4,5-bisphosphate 3-kinase catalytic subunit beta isoform (Homo sapiens, UniProt P42338); experiment: Inhibition of recombinant human PI3Kbeta using PIP2/ATP as substrate preincubated for 20 mins followed by substrate addition measured after 80 mins by Kinase-Glo plus assay
T2 sequence (P42338 whole entry, canonical isoform): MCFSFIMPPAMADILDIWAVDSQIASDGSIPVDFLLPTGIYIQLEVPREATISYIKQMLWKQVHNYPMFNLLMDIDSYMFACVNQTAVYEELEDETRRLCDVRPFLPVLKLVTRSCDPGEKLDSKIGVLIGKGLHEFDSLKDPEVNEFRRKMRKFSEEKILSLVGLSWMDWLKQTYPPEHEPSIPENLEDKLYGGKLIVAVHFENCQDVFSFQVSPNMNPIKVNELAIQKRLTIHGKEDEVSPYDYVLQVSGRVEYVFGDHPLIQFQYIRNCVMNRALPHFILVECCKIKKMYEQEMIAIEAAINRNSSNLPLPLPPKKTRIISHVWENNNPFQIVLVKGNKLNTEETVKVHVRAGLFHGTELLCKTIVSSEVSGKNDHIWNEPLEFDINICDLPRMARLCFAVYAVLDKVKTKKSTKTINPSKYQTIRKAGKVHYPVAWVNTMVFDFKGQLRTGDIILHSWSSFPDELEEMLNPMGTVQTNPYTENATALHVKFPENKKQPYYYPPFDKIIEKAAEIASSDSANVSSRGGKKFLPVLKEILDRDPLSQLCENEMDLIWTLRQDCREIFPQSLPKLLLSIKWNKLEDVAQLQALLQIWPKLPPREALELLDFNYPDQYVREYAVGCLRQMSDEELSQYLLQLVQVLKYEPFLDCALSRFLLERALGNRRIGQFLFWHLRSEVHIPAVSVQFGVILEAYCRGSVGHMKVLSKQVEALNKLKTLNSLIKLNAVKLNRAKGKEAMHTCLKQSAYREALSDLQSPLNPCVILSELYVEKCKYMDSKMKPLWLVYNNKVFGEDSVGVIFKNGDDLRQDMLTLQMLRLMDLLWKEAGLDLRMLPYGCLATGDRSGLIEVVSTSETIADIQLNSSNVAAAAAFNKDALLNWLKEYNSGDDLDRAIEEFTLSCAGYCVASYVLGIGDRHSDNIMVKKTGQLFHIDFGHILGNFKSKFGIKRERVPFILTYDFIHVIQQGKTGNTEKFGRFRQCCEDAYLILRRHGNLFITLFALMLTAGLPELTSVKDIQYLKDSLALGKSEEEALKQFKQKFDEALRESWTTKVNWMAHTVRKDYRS

[6] = biological target: T2, Phosphatidylinositol 4,5-bisphosphate 3-kinase catalytic subunit beta isoform; experiment: Inhibition of PI3Kbeta in human MDA-MB-468 cells assessed as inhibition of Akt phosphorylation at Ser-473 after 2 hrs by ELISA; type: cell-based
[7] = biological target: Dual specificity tyrosine-phosphorylation-regulated kinase 1A (Homo sapiens) (UniProt Q13627); experiment: Inhibition of DYRK1A (unknown origin) at 1 uM preincubated for 5 mins with enzyme and substrate followed by ATP addition relative to control
[8] = biological target: T3, Phosphatidylinositol 4,5-bisphosphate 3-kinase catalytic subunit delta isoform (Homo sapiens, UniProt O00329); experiment: Inhibition of recombinant human PI3Kdelta using PIP2/ATP as substrate preincubated for 20 mins followed by substrate addition measured after 80 mins by Kinase-Glo plus assay
T3 sequence (O00329 whole entry): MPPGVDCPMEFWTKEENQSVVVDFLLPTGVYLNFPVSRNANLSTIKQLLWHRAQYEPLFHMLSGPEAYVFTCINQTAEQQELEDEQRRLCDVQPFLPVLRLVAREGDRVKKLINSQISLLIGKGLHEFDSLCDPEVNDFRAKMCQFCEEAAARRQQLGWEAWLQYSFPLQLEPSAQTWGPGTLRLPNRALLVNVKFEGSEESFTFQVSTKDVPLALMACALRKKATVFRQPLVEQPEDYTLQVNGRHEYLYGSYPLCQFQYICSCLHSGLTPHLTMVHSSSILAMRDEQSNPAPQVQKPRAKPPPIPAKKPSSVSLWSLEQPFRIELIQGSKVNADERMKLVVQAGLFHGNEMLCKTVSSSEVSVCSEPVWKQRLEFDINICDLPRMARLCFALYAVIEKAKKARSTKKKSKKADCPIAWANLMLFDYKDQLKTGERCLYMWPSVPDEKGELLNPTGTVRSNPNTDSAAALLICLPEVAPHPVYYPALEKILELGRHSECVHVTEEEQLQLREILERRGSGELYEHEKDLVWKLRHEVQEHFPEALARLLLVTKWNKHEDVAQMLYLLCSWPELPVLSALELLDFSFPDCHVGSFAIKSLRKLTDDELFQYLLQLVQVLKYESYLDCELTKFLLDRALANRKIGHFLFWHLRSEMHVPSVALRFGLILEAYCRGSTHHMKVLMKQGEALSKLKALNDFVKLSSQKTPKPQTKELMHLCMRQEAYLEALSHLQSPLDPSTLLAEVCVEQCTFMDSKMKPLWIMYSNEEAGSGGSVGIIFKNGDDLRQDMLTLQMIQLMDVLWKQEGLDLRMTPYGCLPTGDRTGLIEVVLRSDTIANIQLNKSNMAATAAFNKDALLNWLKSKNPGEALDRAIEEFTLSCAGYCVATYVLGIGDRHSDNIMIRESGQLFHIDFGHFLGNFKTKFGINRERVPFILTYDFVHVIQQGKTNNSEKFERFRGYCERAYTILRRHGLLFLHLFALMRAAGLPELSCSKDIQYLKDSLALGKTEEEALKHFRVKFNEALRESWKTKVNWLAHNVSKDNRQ

[9] = biological target: Phosphatidylinositol 4,5-bisphosphate 3-kinase catalytic subunit gamma isoform (Homo sapiens, UniProt P48736); experiment: Inhibition of recombinant human PI3Kgamma using PIP2/ATP as substrate preincubated for 20 mins followed by substrate addition measured after 80 mins by Kinase-Glo plus assay
Phosphatidylinositol 4,5-bisphosphate 3-kinase catalytic subunit gamma isoform, sequence (P48736 whole entry, canonical isoform): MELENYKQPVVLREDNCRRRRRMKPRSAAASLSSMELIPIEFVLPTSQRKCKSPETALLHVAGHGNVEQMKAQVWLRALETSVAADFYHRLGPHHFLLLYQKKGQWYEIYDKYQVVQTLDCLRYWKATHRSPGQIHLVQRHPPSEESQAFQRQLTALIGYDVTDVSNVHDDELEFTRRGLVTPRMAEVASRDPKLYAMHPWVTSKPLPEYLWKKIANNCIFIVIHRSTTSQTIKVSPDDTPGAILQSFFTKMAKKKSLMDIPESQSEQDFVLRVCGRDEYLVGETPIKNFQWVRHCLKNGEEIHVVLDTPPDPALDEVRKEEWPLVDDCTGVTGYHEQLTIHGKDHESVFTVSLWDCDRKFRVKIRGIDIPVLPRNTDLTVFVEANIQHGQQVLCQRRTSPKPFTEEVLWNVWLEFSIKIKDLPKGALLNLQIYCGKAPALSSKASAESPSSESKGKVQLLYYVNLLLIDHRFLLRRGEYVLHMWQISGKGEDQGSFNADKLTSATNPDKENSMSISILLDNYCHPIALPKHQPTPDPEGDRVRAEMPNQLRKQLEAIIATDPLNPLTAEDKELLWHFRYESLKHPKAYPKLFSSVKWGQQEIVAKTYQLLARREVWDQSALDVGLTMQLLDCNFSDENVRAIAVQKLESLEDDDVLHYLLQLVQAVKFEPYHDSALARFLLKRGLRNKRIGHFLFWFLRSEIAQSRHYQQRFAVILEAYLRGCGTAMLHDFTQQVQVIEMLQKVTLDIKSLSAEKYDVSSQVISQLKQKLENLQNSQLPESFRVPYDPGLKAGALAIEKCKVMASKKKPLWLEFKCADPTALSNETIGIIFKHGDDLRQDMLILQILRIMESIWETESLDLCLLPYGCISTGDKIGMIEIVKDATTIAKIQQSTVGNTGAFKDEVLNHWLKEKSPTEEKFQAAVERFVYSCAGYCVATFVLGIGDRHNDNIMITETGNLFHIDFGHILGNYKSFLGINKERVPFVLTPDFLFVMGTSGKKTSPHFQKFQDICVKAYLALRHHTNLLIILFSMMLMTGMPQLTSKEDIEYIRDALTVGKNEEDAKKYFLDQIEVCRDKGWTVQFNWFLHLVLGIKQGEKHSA

[10] = biological target: Receptor-interacting serine/threonine-protein kinase 2 (Homo sapiens) (UniProt O43353); experiment: Inhibition of RIPK2 (unknown origin) at 1 uM preincubated for 5 mins with enzyme and substrate followed by ATP addition relative to control
[11] = biological target: Serine/threonine-protein kinase mTOR (Homo sapiens, UniProt P42345); experiment: Inhibition of m-TOR (unknown origin)
[12] = biological target: Glycogen synthase kinase-3 beta (Homo sapiens) (UniProt P49841); experiment: Inhibition of GSK-3beta (unknown origin) at 1 uM preincubated for 5 mins with enzyme and substrate followed by ATP addition relative to control
Glycogen synthase kinase-3 beta (Homo sapiens), sequence (P49841 whole entry, looked up): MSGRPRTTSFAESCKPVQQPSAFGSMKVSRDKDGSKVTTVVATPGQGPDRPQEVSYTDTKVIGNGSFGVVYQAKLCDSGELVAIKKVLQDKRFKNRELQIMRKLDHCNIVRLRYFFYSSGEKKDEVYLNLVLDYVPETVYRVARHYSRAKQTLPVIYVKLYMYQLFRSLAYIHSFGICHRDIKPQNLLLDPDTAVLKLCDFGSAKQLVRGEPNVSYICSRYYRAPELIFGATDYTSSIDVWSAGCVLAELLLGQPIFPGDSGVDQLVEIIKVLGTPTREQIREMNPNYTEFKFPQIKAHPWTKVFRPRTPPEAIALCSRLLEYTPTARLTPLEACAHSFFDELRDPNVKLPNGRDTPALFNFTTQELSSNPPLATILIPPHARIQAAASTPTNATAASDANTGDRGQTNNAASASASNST

T1 sequence (P42336 whole entry, canonical isoform): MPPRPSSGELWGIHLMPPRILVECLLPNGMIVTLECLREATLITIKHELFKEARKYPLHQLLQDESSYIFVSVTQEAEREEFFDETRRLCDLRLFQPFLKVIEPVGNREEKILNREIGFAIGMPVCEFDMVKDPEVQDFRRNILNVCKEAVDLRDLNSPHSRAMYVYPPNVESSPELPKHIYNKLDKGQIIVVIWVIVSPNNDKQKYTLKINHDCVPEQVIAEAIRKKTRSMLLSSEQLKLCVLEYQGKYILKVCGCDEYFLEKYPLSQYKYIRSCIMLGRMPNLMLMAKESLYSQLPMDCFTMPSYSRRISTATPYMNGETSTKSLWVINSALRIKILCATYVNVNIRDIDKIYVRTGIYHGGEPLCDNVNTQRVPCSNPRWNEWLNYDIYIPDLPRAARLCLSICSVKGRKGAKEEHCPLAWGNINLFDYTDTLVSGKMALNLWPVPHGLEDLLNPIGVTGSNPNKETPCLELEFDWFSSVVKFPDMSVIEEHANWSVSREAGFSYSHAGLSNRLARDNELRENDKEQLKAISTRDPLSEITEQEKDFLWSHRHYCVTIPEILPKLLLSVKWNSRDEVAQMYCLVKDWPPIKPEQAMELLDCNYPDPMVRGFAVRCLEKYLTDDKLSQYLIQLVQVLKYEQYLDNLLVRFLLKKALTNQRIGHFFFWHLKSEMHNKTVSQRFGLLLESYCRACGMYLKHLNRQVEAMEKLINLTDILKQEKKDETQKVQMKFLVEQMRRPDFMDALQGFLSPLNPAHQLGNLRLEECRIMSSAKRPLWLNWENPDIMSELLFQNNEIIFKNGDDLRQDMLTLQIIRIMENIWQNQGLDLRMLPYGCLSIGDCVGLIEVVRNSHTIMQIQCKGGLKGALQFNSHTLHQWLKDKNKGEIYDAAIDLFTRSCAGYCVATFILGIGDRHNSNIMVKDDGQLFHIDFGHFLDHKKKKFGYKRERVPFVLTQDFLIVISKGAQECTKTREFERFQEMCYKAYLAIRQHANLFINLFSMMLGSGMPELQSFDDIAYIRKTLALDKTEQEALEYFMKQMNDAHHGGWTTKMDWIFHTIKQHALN

Row | IC50 [1] | IC50 [2] | IC50 [3] | logD at 0.5 h [4] | IC50 [5] | IC50 [6] | inhibition [7] | IC50 [8] | IC50 [9] | inhibition [10] | IC50 [11] | inhibition [12] | SMILES
1 | 0.064 µM | 0.69 µM | 6.6 µM | 1.3 | 1.3 µM | 7.9 µM |  |  |  |  |  |  | CN(C)CC(=O)N1CCC(c2cn(C)c(-c3cnc(N)c(-n4nnc5ccccc54)n3)n2)CC1
2 | 0.28 µM | 3.9 µM | 1.2 µM | 1 | 2.4 µM | 12 µM |  |  |  |  |  |  | CN(C)CC(=O)N1CCC(c2nc(-c3cnc(N)c(-n4nnc5ccccc54)n3)nn2C)CC1
3 | 0.029 µM | 0.27 µM | 9 µM | 0.9 | 1 µM | 6.9 µM | 60% | 0.017 µM | 0.65 µM | 60% | 21 µM | 60% | CN(C)CC(=O)N1CCC(c2nc(-c3cnc(N)c(-n4nnc5ccccc54)n3)n(C)n2)CC1
4 | 0.016 µM | 0.058 µM | 0.029 µM | 1.7 | 0.9 µM | 13 µM |  | 0.02 µM | 0.28 µM |  | 15 µM |  | CN(C)CC(=O)N1CCC(n2cc(-c3cnc(N)c(-n4nnc5ccccc54)n3)cn2)CC1
5 | 0.006 µM | 0.091 µM | 0.09 µM | 1.8 | 0.38 µM | 4.3 µM |  |  |  |  |  |  | CN(C)CC(=O)N1CCC(c2cc(-c3cnc(N)c(-n4nnc5ccccc54)n3)n(C)n2)CC1
6 | 0.027 µM | 0.25 µM | 0.17 µM | 1.8 | 1.7 µM | 10 µM |  |  |  |  |  |  | CN(C)CC(=O)N1CCC(n2ccc(-c3cnc(N)c(-n4nnc5ccccc54)n3)n2)CC1
7 | 0.021 µM | 0.14 µM | 0.21 µM | 1.9 | 0.65 µM | 7.8 µM |  |  |  |  |  |  | CN(C)CC(=O)N1CCC(n2ncc(-c3cnc(N)c(-n4nnc5ccccc54)n3)n2)CC1
